Values after ≈ are worked out from the molar mass of the structure shown.
Experiments:
Enterococcus [1] = experiment: Antibacterial activity against Vancomycin-resistant Enterococci NR30909 assessed as inhibition of bacterial growth incubated for 18 to 24 hrs by CLSI microbroth dilution method; format: functional; conditions: time 18-24 hrs
Enterococcus [2] = experiment: Antibacterial activity against Vancomycin-resistant Enterococci ATCC 51559 assessed as inhibition of bacterial growth incubated for 18 to 24 hrs by CLSI microbroth dilution method; format: functional; conditions: time 18-24 hrs
Enterococcus [3] = experiment: Antibacterial activity against Vancomycin-resistant Enterococci NR30903 assessed as inhibition of bacterial growth incubated for 18 to 24 hrs by CLSI microbroth dilution method; format: functional; conditions: time 18-24 hrs
Enterococcus [4] = experiment: Antibacterial activity against Vancomycin-resistant Enterococci ATCC 51575 assessed as inhibition of bacterial growth incubated for 18 to 24 hrs by CLSI microbroth dilution method; format: functional; conditions: time 18-24 hrs
Enterococcus [5] = experiment: Potency index, ratio of Vancomycin MIC to test compound MIC for antibacterial activity against Vancomycin-resistant Enterococci NR30909; format: functional, NR 30909
Enterococcus [6] = experiment: Potency index, ratio of Vancomycin MIC to test compound MIC for antibacterial activity against Vancomycin-resistant Enterococci ATCC 51559; format: functional
Staphylococcus aureus [7] = experiment: Potency index, ratio of Vancomycin MIC to test compound MIC for antibacterial activity against Vancomycin-resistant Staphylococcus aureus 4; format: functional
Staphylococcus aureus [8] = experiment: Antibacterial activity against Vancomycin-resistant Staphylococcus aureus 4 assessed as inhibition of bacterial growth incubated for 18 to 24 hrs by CLSI microbroth dilution method; format: functional; conditions: time 18-24 hrs
Staphylococcus aureus [9] = experiment: Antibacterial activity against Vancomycin-resistant Staphylococcus aureus 12 assessed as inhibition of bacterial growth incubated for 18 to 24 hrs by CLSI microbroth dilution method; format: functional; conditions: time 18-24 hrs
Staphylococcus aureus [10] = experiment: Potency index, ratio of Vancomycin MIC to test compound MIC for antibacterial activity against Vancomycin-resistant Staphylococcus aureus 12; format: functional
Staphylococcus aureus [11] = experiment: Antibacterial activity against Vancomycin-resistant Staphylococcus aureus 1 assessed as inhibition of bacterial growth incubated for 18 to 24 hrs by CLSI microbroth dilution method; format: functional; conditions: time 18-24 hrs
Enterococcus [12] = experiment: Potency index, ratio of Vancomycin MIC to test compound MIC for antibacterial activity against Vancomycin-resistant Enterococci NR30903; format: functional, NR 30903
[13] = Induction of hemolysis in human erythrocytes incubated for 1 hr by microtiter plater reader analysis; format: toxicity, cell-based, Erythrocyte
Enterococcus [14] = experiment: Potency index, ratio of Vancomycin MIC to test compound MIC for antibacterial activity against Vancomycin-resistant Enterococci ATCC 51575; format: functional
Staphylococcus aureus [15] = experiment: Potency index, ratio of Vancomycin MIC to test compound MIC for antibacterial activity against Vancomycin-resistant Staphylococcus aureus 1; format: functional
Staphylococcus aureus [16] = experiment: Antibacterial activity against Methicillin-resistant Staphylococcus aureus ATCC 33591 assessed as inhibition of bacterial growth incubated for 18 to 24 hrs by CLSI microbroth dilution method; format: functional; conditions: time 18-24 hrs
Staphylococcus aureus [17] = experiment: Potency index, ratio of Vancomycin MIC to test compound MIC for antibacterial activity against Methicillin-resistant Staphylococcus aureus ATCC 33591; format: functional
[18] = Induction of hemolysis in human erythrocytes at 250 uM incubated for 1 hr by microtiter plater reader analysis; format: toxicity, cell-based, Erythrocyte; conditions: read-out: Activity

In the case of `CCCCCCCCCCNC(=O)C[N+](C)(C)CCCNC(=O)c1ccc(C)cc1`, the MIC (Enterococcus [1]) is reported as over 40 µM, the MIC (Enterococcus [2]) is reported as over 40 µM and the MIC (Enterococcus [3]) is reported as over 40 µM. It also gave an MIC (Enterococcus [4]) of over 40 µM.

With `CCCCCCCCCCNC(=O)c1ccc(CN[C@@]2(C)C[C@H](O[C@H]3[C@H](Oc4c5cc6cc4Oc4ccc(cc4Cl)[C@@H](O)[C@@H](NC(=O)[C@@H](CC(C)C)NC)C(=O)N[C@@H](CC(N)=O)C(=O)N[C@H]6C(=O)N[C@H]4C(=O)N[C@H](C(=O)N[C@H](C(=O)O)c6cc(O)cc(O)c6-c6cc4ccc6O)[C@H](O)c4ccc(c(Cl)c4)O5)O[C@H](CO)[C@@H](O)[C@@H]3O)O[C@@H](C)[C@H]2O)cc1` the Ratio (Enterococcus [5]) was 670, the Ratio (Enterococcus [6]) was 670 and the Ratio (Staphylococcus aureus [7]) was 390. The MIC (Staphylococcus aureus [8]) was 1 µM (≈ 1.72 µg/mL), the MIC (Staphylococcus aureus [9]) was 2 µM (≈ 3.45 µg/mL) and the Ratio (Staphylococcus aureus [10]) was 390. It also gave an MIC (Enterococcus [1]) of 2 µM (≈ 3.45 µg/mL), an MIC (Staphylococcus aureus [11]) of 2 µM (≈ 3.45 µg/mL) and a Ratio (Enterococcus [12]) of 670. It also gave an HC50 at 1 h [13] of 62.5 µM, an MIC (Enterococcus [2]) of 2 µM (≈ 3.45 µg/mL) and an MIC (Enterococcus [3]) of 2 µM (≈ 3.45 µg/mL). The MIC (Enterococcus [4]) was 0.2 µM (≈ 0.345 µg/mL), the Ratio (Enterococcus [14]) was 670 and the Ratio (Staphylococcus aureus [15]) was 390. The MIC (Staphylococcus aureus [16]) was 2 µM (≈ 3.45 µg/mL).

In the case of `CCCCCCCCNC(=O)c1ccc(CN[C@@]2(C)C[C@H](O[C@H]3[C@H](Oc4c5cc6cc4Oc4ccc(cc4Cl)[C@@H](O)[C@@H](NC(=O)[C@@H](CC(C)C)NC)C(=O)N[C@@H](CC(N)=O)C(=O)N[C@H]6C(=O)N[C@H]4C(=O)N[C@H](C(=O)N[C@H](C(=O)O)c6cc(O)cc(O)c6-c6cc4ccc6O)[C@H](O)c4ccc(c(Cl)c4)O5)O[C@H](CO)[C@@H](O)[C@@H]3O)O[C@@H](C)[C@H]2O)cc1`, the Ratio (Enterococcus [5]) is reported as 166, the Ratio (Enterococcus [6]) is reported as 166 and the Ratio (Staphylococcus aureus [7]) is reported as 166. The MIC (Staphylococcus aureus [8]) was 2.1 µM (≈ 3.56 µg/mL), the MIC (Staphylococcus aureus [9]) was 0.3 µM (≈ 0.508 µg/mL) and the Ratio (Staphylococcus aureus [10]) was 166. It also gave a Ratio (Staphylococcus aureus [17]) of 2, an MIC (Enterococcus [1]) of 2.1 µM (≈ 3.56 µg/mL) and an MIC (Staphylococcus aureus [11]) of 4.2 µM (≈ 7.12 µg/mL). It also gave a Ratio (Enterococcus [12]) of 166, an HC50 at 1 h [13] of over 250 µM and an MIC (Enterococcus [2]) of 8.3 µM (≈ 14.1 µg/mL). It also gave an MIC (Enterococcus [3]) of 4.2 µM (≈ 7.12 µg/mL), an MIC (Enterococcus [4]) of 1 µM (≈ 1.69 µg/mL) and a Ratio (Enterococcus [14]) of 166. For the same molecule, the Ratio (Staphylococcus aureus [15]) was 166 and the MIC (Staphylococcus aureus [16]) was 1 µM (≈ 1.69 µg/mL).

Molecule `CCCCCCCCNC(=O)C[N+](C)(C)CCCNC(=O)c1ccc(CN[C@@]2(C)C[C@H](O[C@H]3[C@H](Oc4c5cc6cc4Oc4ccc(cc4Cl)[C@@H](O)[C@@H](NC(=O)[C@@H](CC(C)C)NC)C(=O)N[C@@H](CC(N)=O)C(=O)N[C@H]6C(=O)N[C@H]4C(=O)N[C@H](C(=O)N[C@H](C(=O)O)c6cc(O)cc(O)c6-c6cc4ccc6O)[C@H](O)c4ccc(c(Cl)c4)O5)O[C@H](CO)[C@@H](O)[C@@H]3O)O[C@@H](C)[C@H]2O)cc1` has a Ratio (Enterococcus [5]) of 750, a Ratio (Enterococcus [6]) of 750 and a Ratio (Staphylococcus aureus [7]) of 750. It also gave an MIC (Staphylococcus aureus [8]) of 3.7 µM, an MIC (Staphylococcus aureus [9]) of 3.7 µM and a Ratio (Staphylococcus aureus [10]) of 750. It also gave an MIC (Enterococcus [1]) of 0.9 µM, an MIC (Staphylococcus aureus [11]) of 1.8 µM and a Ratio (Enterococcus [12]) of 750. For the same molecule, the HC50 at 1 h [13] was over 250 µM, the MIC (Enterococcus [2]) was 14.7 µM and the MIC (Enterococcus [3]) was 0.9 µM. It also gave a hemolysis at 1 h, 250 µM [18] of 1%, an MIC (Enterococcus [4]) of 14.7 µM and a Ratio (Enterococcus [14]) of 750. For the same molecule, the Ratio (Staphylococcus aureus [15]) was 750 and the MIC (Staphylococcus aureus [16]) was 0.4 µM.

Work on `CCCCCCCCCCCCCCNC(=O)c1ccc(CN[C@@]2(C)C[C@H](O[C@H]3[C@H](Oc4c5cc6cc4Oc4ccc(cc4Cl)[C@@H](O)[C@@H](NC(=O)[C@@H](CC(C)C)NC)C(=O)N[C@@H](CC(N)=O)C(=O)N[C@H]6C(=O)N[C@H]4C(=O)N[C@H](C(=O)N[C@H](C(=O)O)c6cc(O)cc(O)c6-c6cc4ccc6O)[C@H](O)c4ccc(c(Cl)c4)O5)O[C@H](CO)[C@@H](O)[C@@H]3O)O[C@@H](C)[C@H]2O)cc1` yielded an MIC (Staphylococcus aureus [8]) of 4 µM (≈ 7.12 µg/mL), an MIC (Staphylococcus aureus [9]) of 4 µM (≈ 7.12 µg/mL) and an MIC (Enterococcus [1]) of 4 µM (≈ 7.12 µg/mL). It also gave an MIC (Staphylococcus aureus [11]) of 8 µM (≈ 14.2 µg/mL), an HC50 at 1 h [13] of 27.5 µM and an MIC (Enterococcus [2]) of 4 µM (≈ 7.12 µg/mL). The MIC (Enterococcus [3]) was 2 µM (≈ 3.56 µg/mL), the MIC (Enterococcus [4]) was 4 µM (≈ 7.12 µg/mL) and the MIC (Staphylococcus aureus [16]) was 4 µM (≈ 7.12 µg/mL).

With `CCCCCCCCCCCCNC(=O)C[N+](C)(C)CCCNC(=O)c1ccc(CN[C@@]2(C)C[C@H](O[C@H]3[C@H](Oc4c5cc6cc4Oc4ccc(cc4Cl)[C@@H](O)[C@@H](NC(=O)[C@@H](CC(C)C)NC)C(=O)N[C@@H](CC(N)=O)C(=O)N[C@H]6C(=O)N[C@H]4C(=O)N[C@H](C(=O)N[C@H](C(=O)O)c6cc(O)cc(O)c6-c6cc4ccc6O)[C@H](O)c4ccc(c(Cl)c4)O5)O[C@H](CO)[C@@H](O)[C@@H]3O)O[C@@H](C)[C@H]2O)cc1` the Ratio (Enterococcus [5]) was 780, the Ratio (Enterococcus [6]) was 780 and the Ratio (Staphylococcus aureus [7]) was 780. For the same molecule, the MIC (Staphylococcus aureus [8]) was 0.9 µM, the MIC (Staphylococcus aureus [9]) was 0.9 µM and the Ratio (Staphylococcus aureus [10]) was 780. For the same molecule, the MIC (Enterococcus [1]) was 0.9 µM, the MIC (Staphylococcus aureus [11]) was 0.9 µM and the Ratio (Enterococcus [12]) was 780. The HC50 at 1 h [13] was 72 µM, the MIC (Enterococcus [2]) was 1.8 µM and the MIC (Enterococcus [3]) was 0.9 µM. The MIC (Enterococcus [4]) was 1.8 µM, the Ratio (Enterococcus [14]) was 780 and the Ratio (Staphylococcus aureus [15]) was 780. It also gave an MIC (Staphylococcus aureus [16]) of 1.8 µM.

Reference: ChEMBL document CHEMBL5223082, “Alkyl-Aryl-Vancomycins: Multimodal Glycopeptides with Weak Dependence on the Bacterial Metabolic State” (J Med Chem, 2021)
